# Measurements published in patent US20230398130A1, “METHODS AND COMPOSITIONS FOR DIFFERENTIATING STEM CELLS” (Massachusetts Institute of Technology, priority 2020, published 2023).
# Assays:
# [1] = test system: ISC-enriched organoids; experiment: Primary screen, 384-well 2.5-D organoid differentiation (ENR+CD, 6 days): basal lysozyme secretion (LYZ.NS); type: cell-based, murine; details: for Dose.FC.LYZ.NS: FC vs plate median; for SSMD.LYZ.NS: strictly standardized mean difference
# Description: (§1) High-throughput screening.
# [2] = test system: ISC-enriched organoids; experiment: Primary screen, 384-well 2.5-D organoid differentiation (ENR+CD, 6 days): carbachol-induced lysozyme secretion (LYZ.S); type: cell-based, murine; details: for Dose.FC.LYZ.S: FC vs plate median; for Z.LYZ.S: standard z score; for SSMD.LYZ.S: strictly standardized mean difference
# Description: as §1
# [3] = test system: ISC-enriched organoids; experiment: Primary screen, 384-well 2.5-D organoid differentiation (ENR+CD, 6 days, Target Selective Inhibitor Library, vs whole-plate median): ATP (CellTiter-Glo 3D, CTG); details: for Dose.FC.CTG: FC vs plate median; for SSMD.CTG: strictly standardized mean difference
# [4] = dose 0.08 uM (1st of 4 lines per treatment; dose not printed in this part)
# [5] = dose 0.40 uM (2nd of 4 lines per treatment; dose not printed in this part)
# [6] = dose 2.00 uM (3rd of 4 lines per treatment; dose not printed in this part)
# [7] = dose 10.00 uM (4th of 4 lines per treatment; dose not printed in this part)
# [8] = primary screen, dose 0.08 uM, ENR+CD 6 days
# [9] = primary screen, dose 0.08 uM, standard z score of FC
# [10] = primary screen, dose 0.40 uM, ENR+CD 6 days
# [11] = primary screen, dose 0.40 uM, standard z score of FC
# [12] = primary screen, dose 2.00 uM, ENR+CD 6 days
# [13] = primary screen, dose 2.00 uM, standard z score of FC
# [14] = primary screen, dose 10.00 uM, ENR+CD 6 days
# [15] = primary screen, dose 10.00 uM, standard z score of FC
# [16] = Dose 0.08 uM, primary screen, standard z score
# [17] = Dose 0.40 uM, primary screen, standard z score
# [18] = Dose 2.00 uM, primary screen, standard z score
# [19] = Dose 10.00 uM, primary screen, standard z score
# [20] = primary screen, 1st of the 4 dose lines of the treatment (dose not given)
# [21] = primary screen, 2nd of the 4 dose lines of the treatment (dose not given)
# [22] = primary screen, 3rd of the 4 dose lines of the treatment (dose not given)
# [23] = primary screen, 4th of the 4 dose lines of the treatment (dose not given)
# [24] = Dose 0.08 uM, standard z score of FC
# [25] = Dose 0.40 uM, standard z score of FC
# [26] = Dose 2.00 uM, standard z score of FC
# [27] = Dose 10.00 uM, standard z score of FC
compound,measurement,setting,value
(−)-MK 801 Maleate,SSMD.LYZ.NS_Rep (strictly standardized mean difference),[1]; [4],0.070
same,SSMD.LYZ.NS_Rep (strictly standardized mean difference),[1]; [5],−0.550
same,SSMD.LYZ.NS_Rep (strictly standardized mean difference),[1]; [6],−1.315
same,SSMD.LYZ.NS_Rep (strictly standardized mean difference),[1]; [7],−1.708
same,Dose.FC.LYZ.NS,[1]; [8],0.008 log 2 fold change
same,Z.LYZ.NS,[1]; [9],0.072
same,Dose.FC.LYZ.NS,[1]; [10],−0.099 log 2 fold change
same,Z.LYZ.NS,[1]; [11],−0.864
same,Dose.FC.LYZ.NS,[1]; [12],−0.256 log 2 fold change
same,Z.LYZ.NS,[1]; [13],−2.227
same,Dose.FC.LYZ.NS,[1]; [14],−0.259 log 2 fold change
same,Z.LYZ.NS,[1]; [15],−2.255
same,SSMD.LYZ.S_Rep (strictly standardized mean difference),[2]; [4],0.116
same,Z.LYZ.S (standard z score),[2]; [4],0.099
same,SSMD.LYZ.S_Rep (strictly standardized mean difference),[2]; [5],−0.976
same,Z.LYZ.S (standard z score),[2]; [5],−1.159
same,SSMD.LYZ.S_Rep (strictly standardized mean difference),[2]; [6],−1.187
same,Z.LYZ.S (standard z score),[2]; [6],−2.160
same,SSMD.LYZ.S_Rep (strictly standardized mean difference),[2]; [7],−1.768
same,Z.LYZ.S (standard z score),[2]; [7],−2.604
same,Dose.FC.LYZ.S,[2]; [8],0.015 log 2 fold change
same,Dose.FC.LYZ.S,[2]; [10],−0.179 log 2 fold change
same,Dose.FC.LYZ.S,[2]; [12],−0.334 log 2 fold change
same,Dose.FC.LYZ.S,[2]; [14],−0.403 log 2 fold change
same,SSMD.CTG_Rep (strictly standardized mean difference),[3]; [4],0.442
same,SSMD.CTG_Rep (strictly standardized mean difference),[3]; [5],−1.342
same,SSMD.CTG_Rep (strictly standardized mean difference),[3]; [6],−1.102
same,SSMD.CTG_Rep (strictly standardized mean difference),[3]; [7],−1.696
same,Dose.FC.CTG,[3]; [8],0.127 log 2 fold change
same,Z.CTG,[3]; [9],0.303
same,Dose.FC.CTG,[3]; [10],−0.377 log 2 fold change
same,Z.CTG,[3]; [11],−0.899
same,Dose.FC.CTG,[3]; [12],−0.702 log 2 fold change
same,Z.CTG,[3]; [13],−1.677
same,Dose.FC.CTG,[3]; [14],−0.936 log 2 fold change
same,Z.CTG,[3]; [15],−2.236
Cc1cccc(-c2nn3c(c2-c2ccnc4ccc(C(N)=O)cc24)CCC3)n1 [LY2157299],Dose.FC.LYZ.NS,"[1]; Dose 0.08 uM, primary screen",0.227 log 2 fold change
same,Z.LYZ.NS,[1]; [16],1.973
same,Dose.FC.LYZ.NS,"[1]; Dose 0.40 uM, primary screen",0.140 log 2 fold change
same,Z.LYZ.NS,[1]; [17],1.221
same,Dose.FC.LYZ.NS,"[1]; Dose 2.00 uM, primary screen",0.092 log 2 fold change
same,Z.LYZ.NS,[1]; [18],0.799
same,Dose.FC.LYZ.NS,"[1]; Dose 10.00 uM, primary screen",0.162 log 2 fold change
same,Z.LYZ.NS,[1]; [19],1.408
same,SSMD.LYZ.NS,[1]; [20],0.656
same,SSMD.LYZ.NS,[1]; [21],0.737
same,SSMD.LYZ.NS,[1]; [22],0.827
same,SSMD.LYZ.NS,[1]; [23],1.243
same,Dose.FC.LYZ.S,"[2]; Dose 0.08 uM, primary screen",0.187 log 2 fold change
same,Dose.FC.LYZ.S,"[2]; Dose 0.40 uM, primary screen",0.199 log 2 fold change
same,Dose.FC.LYZ.S,"[2]; Dose 2.00 uM, primary screen",0.113 log 2 fold change
same,Dose.FC.LYZ.S,"[2]; Dose 10.00 uM, primary screen",0.223 log 2 fold change
same,Z.LYZ.S,[2]; [20],1.209
same,Z.LYZ.S,[2]; [21],1.287
same,Z.LYZ.S,[2]; [22],0.731
same,Z.LYZ.S,[2]; [23],1.441
same,SSMD.LYZ.S,[2]; [20],1.145
same,SSMD.LYZ.S,[2]; [21],1.157
same,SSMD.LYZ.S,[2]; [22],0.808
same,SSMD.LYZ.S,[2]; [23],1.219
same,Dose.FC.CTG,"[3]; Dose 0.08 uM, primary screen",0.091 log 2 fold change
same,Z.CTG,[3]; [16],0.218
same,Dose.FC.CTG,"[3]; Dose 0.40 uM, primary screen",0.137 log 2 fold change
same,Z.CTG,[3]; [17],0.328
same,Dose.FC.CTG,"[3]; Dose 2.00 uM, primary screen",0.017 log 2 fold change
same,Z.CTG,[3]; [18],0.041
same,Dose.FC.CTG,"[3]; Dose 10.00 uM, primary screen",0.095 log 2 fold change
same,Z.CTG,[3]; [19],0.226
same,SSMD.CTG,[3]; [20],0.343
same,SSMD.CTG,[3]; [21],0.369
same,SSMD.CTG,[3]; [22],0.048
same,SSMD.CTG,[3]; [23],0.314
CCOC(=O)c1ccc(NC2CCCCC2)c(N)c1 [Ferrostatin-1 (Fer-1)],Dose.FC.LYZ.NS,"[1]; Dose 0.08 uM, ENR+CD, 6 days",0.108 log 2 fold change
same,Z.LYZ.NS,[1]; [24],0.944
same,Dose.FC.LYZ.NS,"[1]; Dose 0.40 uM, ENR+CD, 6 days",0.116 log 2 fold change
same,Z.LYZ.NS,[1]; [25],1.012
same,Dose.FC.LYZ.NS,"[1]; Dose 2.00 uM, ENR+CD, 6 days",0.070 log 2 fold change
same,Z.LYZ.NS,[1]; [26],0.610
same,Dose.FC.LYZ.NS,"[1]; Dose 10.00 uM, ENR+CD, 6 days",0.013 log 2 fold change
same,Z.LYZ.NS,[1]; [27],0.116
same,Dose.FC.LYZ.S,"[2]; Dose 0.08 uM, ENR+CD, 6 days",0.120 log 2 fold change
same,Dose.FC.LYZ.S,"[2]; Dose 0.40 uM, ENR+CD, 6 days",0.207 log 2 fold change
same,Dose.FC.LYZ.S,"[2]; Dose 2.00 uM, ENR+CD, 6 days",0.092 log 2 fold change
same,Dose.FC.LYZ.S,"[2]; Dose 10.00 uM, ENR+CD, 6 days",−0.018 log 2 fold change
same,Dose.FC.CTG,"[3]; Dose 0.08 uM, ENR+CD, 6 days",0.312 log 2 fold change
same,Z.CTG,[3]; [24],0.745
same,Dose.FC.CTG,"[3]; Dose 0.40 uM, ENR+CD, 6 days",0.453 log 2 fold change
same,Z.CTG,[3]; [25],1.082
same,Dose.FC.CTG,"[3]; Dose 2.00 uM, ENR+CD, 6 days",0.215 log 2 fold change
same,Z.CTG,[3]; [26],0.514
same,Dose.FC.CTG,"[3]; Dose 10.00 uM, ENR+CD, 6 days",−0.046 log 2 fold change
same,Z.CTG,[3]; [27],−0.109
COc1cc(OC2CCN(C)CC2)ccc1Nc1ncc2c(n1)n(C1CCCC1)c(=O)n2C [AZ 3146],Dose.FC.LYZ.NS,[1]; [8],0.073 log 2 fold change
same,Z.LYZ.NS,[1]; [9],0.639
same,Dose.FC.LYZ.NS,[1]; [10],−0.038 log 2 fold change
same,Z.LYZ.NS,[1]; [11],−0.327
same,Dose.FC.LYZ.NS,[1]; [12],−0.079 log 2 fold change
same,Z.LYZ.NS,[1]; [13],−0.687
same,Dose.FC.LYZ.NS,[1]; [14],−0.281 log 2 fold change
same,Z.LYZ.NS,[1]; [15],−2.447
same,Dose.FC.LYZ.S,[2]; [8],0.049 log 2 fold change
same,Dose.FC.LYZ.S,[2]; [10],−0.067 log 2 fold change
same,Dose.FC.LYZ.S,[2]; [12],−0.130 log 2 fold change
same,Dose.FC.LYZ.S,[2]; [14],−0.422 log 2 fold change
same,Dose.FC.CTG,[3]; [8],−0.130 log 2 fold change
same,Z.CTG,[3]; [9],−0.310
same,Dose.FC.CTG,[3]; [10],−0.262 log 2 fold change
same,Z.CTG,[3]; [11],−0.626
same,Dose.FC.CTG,[3]; [12],−0.369 log 2 fold change
same,Z.CTG,[3]; [13],−0.881
same,Dose.FC.CTG,[3]; [14],−1.168 log 2 fold change
same,Z.CTG,[3]; [15],−2.789
